Experimental data as given in patent US9980928B2, “Hydroxy aliphatic substituted phenyl aminoalkyl ether derivatives” (PROUS INSTITUTE FOR BIOMEDICAL RESEARCH, S.A., priority 2012, dated 2018).

Tests used:
[1] = target: T1, norepinephrine (NE) transporter (Homo sapiens, UniProt P23975); test: Norepinephrine transporter binding radioligand inhibition ([3H]-nisoxetine); conditions: concentration 10 μM
T1 construct: expressed in transfected cells; host or cells: CHO cells
Description: The norepinephrine (NE) transporter removes NE from the synaptic cleft. The NE transporter terminates the effects of […], enabling its reuse by the presynaptic neuron. The in vitro binding of the compounds of the invention to the NE transporter and the percent inhibition of control-specific binding ([^3H]-nisoxetine in human recombinant CHO cells) is determined following the method described in Pacholczyk et al., (Nature 1991, 350(6316): 350-4.

serotonin transporter = target: T2, serotonin transporter (Homo sapiens, UniProt P31645); test: Serotonin transporter binding radioligand inhibition ([3H]-imipramine); conditions: concentration 10 μM; read-out: serotonin binding inhibition
T2 construct: expressed in transfected cells; host or cells: CHO cells
T2 sequence (P31645 whole entry): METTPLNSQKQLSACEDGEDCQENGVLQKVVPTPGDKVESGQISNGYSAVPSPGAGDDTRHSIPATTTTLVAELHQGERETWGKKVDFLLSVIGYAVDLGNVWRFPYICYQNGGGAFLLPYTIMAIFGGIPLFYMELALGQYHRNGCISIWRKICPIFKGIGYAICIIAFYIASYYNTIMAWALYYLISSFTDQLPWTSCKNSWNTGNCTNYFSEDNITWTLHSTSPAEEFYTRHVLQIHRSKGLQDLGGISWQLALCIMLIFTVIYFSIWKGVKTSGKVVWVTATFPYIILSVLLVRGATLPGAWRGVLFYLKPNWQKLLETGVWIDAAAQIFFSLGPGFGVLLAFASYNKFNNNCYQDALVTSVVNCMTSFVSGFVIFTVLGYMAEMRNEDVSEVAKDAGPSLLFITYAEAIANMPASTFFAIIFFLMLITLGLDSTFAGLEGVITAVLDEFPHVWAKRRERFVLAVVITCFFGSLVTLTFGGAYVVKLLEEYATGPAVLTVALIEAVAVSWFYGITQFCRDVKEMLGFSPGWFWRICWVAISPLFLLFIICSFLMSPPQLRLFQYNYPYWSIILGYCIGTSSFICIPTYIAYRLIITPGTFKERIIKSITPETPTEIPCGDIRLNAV
From the text: The serotonin transporter removes serotonin from the synaptic deft. The serotonin transporter terminates the effects of […], enabling its reuse by the presynaptic neuron.

uptake of norepinephrine = uptake of norepinephrine (Homo sapiens, UniProt P23975); test: Uptake inhibition of norepinephrine, cellular assay; type: cell-based; conditions: read-out: Norepinephrine reuptake inhibition (IC50 μM)
Chain of uptake of norepinephrine (P23975 whole entry): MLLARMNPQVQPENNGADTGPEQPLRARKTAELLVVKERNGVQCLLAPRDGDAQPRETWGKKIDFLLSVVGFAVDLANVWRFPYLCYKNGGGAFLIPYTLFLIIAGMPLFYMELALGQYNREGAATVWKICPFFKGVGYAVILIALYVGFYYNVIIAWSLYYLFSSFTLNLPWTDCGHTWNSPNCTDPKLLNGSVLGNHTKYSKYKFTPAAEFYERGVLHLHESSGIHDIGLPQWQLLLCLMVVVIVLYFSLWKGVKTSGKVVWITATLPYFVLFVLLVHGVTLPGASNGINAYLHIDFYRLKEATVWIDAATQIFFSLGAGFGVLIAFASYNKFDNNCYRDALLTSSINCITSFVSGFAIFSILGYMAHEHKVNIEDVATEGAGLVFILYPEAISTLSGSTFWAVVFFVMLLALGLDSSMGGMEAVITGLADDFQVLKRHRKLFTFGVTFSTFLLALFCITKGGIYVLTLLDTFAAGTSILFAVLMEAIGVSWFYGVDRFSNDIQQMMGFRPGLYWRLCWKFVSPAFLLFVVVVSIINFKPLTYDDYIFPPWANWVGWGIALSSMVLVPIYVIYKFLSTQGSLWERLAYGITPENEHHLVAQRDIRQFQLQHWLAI
Description: (§1) The effect of the compounds of the present invention as inhibitors of the uptake of norepinephrine and serotonin in cellular assays at concentrations that range from […] to 1 nM is determined following the methods described in Galli, A. et al. J Exp Biol 1995, 198(Pt. 10): 2197-212 and Gu, H. et al. J Biol Chem. 1994, 269(10):7124-30.

uptake of serotonin = uptake of serotonin (Homo sapiens, UniProt P31645); test: Uptake inhibition of serotonin, cellular assay; type: cell-based; conditions: read-out: Serotonin reuptake inhibition (IC50 μM)
Chain of uptake of serotonin (P31645 whole entry): as the sequence (P31645 whole entry) above
Description: as §1

mice [2] = test: Tail suspension assay in mice; type: in vivo
Description: Another method of measuring antidepressant activity that may be used to evaluate the compounds of the present invention is the tail suspension test in mice described in Vogel, H. G. and Vogel, W. H. (Eds.) Drug Discovery and Evaluation, Springer-Verlag Berlin Heidelberg, 1997) pp. 304-3059). The mouse tail suspension assay was conducted 60 minutes after dosing. The duration of immobility was recorded for a period of 5 minutes after tail suspension was initiated, and reduction in the duration of immobility by ≥50% relative to the control group indicated antidepressant activity. Statistical analysis was also performed by using one-way ANOVA followed by Dunnett's test to compare the data of test compound-treated and vehicle control groups. Significance was considered to be P<0.05.

mice [3] = test: Mouse formalin assay (analgesic activity); type: in vivo
Description: The analgesic activity of the compounds of the present invention is determined making use of the mouse formalin test described in Hunskaar, S. J Neurosci Methods 1985, 14(1): 69-76. The hind paw licking time was measured at 5-minute intervals for 30 minutes following subplantar injection of formalin (0.02 mL, 2%). Statistical analysis using one-way ANOVA followed by Dunnett's test was applied for comparison between the test substance-treated and vehicle control groups. P<0.05 was considered significant.

CHO cells = test: In vitro MTT toxicity screen; type: cell-based, Chinese hamster; conditions: 10 μM, compared to positive control group (10% DMSO)
Description: The toxicity of the compounds of the present invention at a concentration of 10 μM has been explored using the tetrazolium salt (MTT) method in CHO cells. The MTT method involving conversion of MTT to colored formazan by cells serves as an indirect measurement of cell growth/cell kill, as reported by several groups (Paimela, T. et al. Mol Vis 2012; 18: 1189-96; Hansen, M. B. et al. J Immunol Methods 1989, 119(2): 203-10).
In the MTT assay, cytotoxicity is correlated with the color of MTT and is measured with a spectrophotometer at the wavelength of 570 nm. Briefly, fresh MTT solution (10 mg/mL in 1×PBS) was added (1:20 volume of medium) and the cells were incubated for 1.5 hours. The cells were lysed and purple formazan was dissolved into the solution by overnight incubation with MTT lysis buffer (20% SDS, 50% N,N-dimethylformamide, 2% acetic acid, 25 mM HCl; the volume of medium+volume of MTT salt solution).

[4] = system: phosphorylation of CREB in SN56 and T48 cell lines; test: CREB phosphorylation in SN56 and T48 cell lines (western blot); type: cell-based, mouse; conditions: both cell lines (SN56 and T48)
Description: The purpose of the study was to assess the acute biochemical neuronal changes in neurotrophin and synaptic plasticity signaling in vitro after the incubation in SN56 (fusion of mouse septal area cells and neuroblastoma cells with no TRKB expression) and T48 (SN56 stable transfected to express TrkB) cell lines the Examples 3 and 4. These changes were studied with a western blot assessment of Erk, Akt, PLC, Trkb, BDNF and CREB (cAMP response element-binding protein) phosphorilation assays.
Proteins were denatured in 62.5 mM Tris-HCl (pH 6.8), 2% (w/v) SDS, 10% glycerol, 140 mM β-mercaptoethanol and 0.1% (w/v) bromophenol blue, heated at 100° C. for 5 min (except for VGLUT1 blotting: 10 minutes 60° C.) and resolved in denaturing polyacrylamide gels (8% acrylamide); proteins were transferred to a nitrocellulose membrane), and washed twice in Tris-buffered saline containing 0.1% Tween-20 (TBS-T). […]
After primary antibody incubation, membranes were washed with TBS-T and incubated for 1 h at room temperature with the appropriated horseradish peroxidase-conjugated secondary antibody (Promega, Madison, Wis., USA), and the reaction was finally visualized with the Western Blotting Luminol Reagent (Santa Cruz Biotechnology, Santa Cruz, Calif., USA). Western blot replicates were scanned and quantified using a computer-assisted densitometric analysis. […]

[5] = target: T3, Human dopamine transporters (Homo sapiens, UniProt Q01959); test: Binding to the dopamine transporter ([125I]-RTI-55); conditions: reference compound; read-out: IC50, [125I]-RTI-55 binding to DAT
T3 construct: expressed in transfected cells; host or cells: CHO-K1 cells (membranes)
T3 sequence (Q01959 whole entry): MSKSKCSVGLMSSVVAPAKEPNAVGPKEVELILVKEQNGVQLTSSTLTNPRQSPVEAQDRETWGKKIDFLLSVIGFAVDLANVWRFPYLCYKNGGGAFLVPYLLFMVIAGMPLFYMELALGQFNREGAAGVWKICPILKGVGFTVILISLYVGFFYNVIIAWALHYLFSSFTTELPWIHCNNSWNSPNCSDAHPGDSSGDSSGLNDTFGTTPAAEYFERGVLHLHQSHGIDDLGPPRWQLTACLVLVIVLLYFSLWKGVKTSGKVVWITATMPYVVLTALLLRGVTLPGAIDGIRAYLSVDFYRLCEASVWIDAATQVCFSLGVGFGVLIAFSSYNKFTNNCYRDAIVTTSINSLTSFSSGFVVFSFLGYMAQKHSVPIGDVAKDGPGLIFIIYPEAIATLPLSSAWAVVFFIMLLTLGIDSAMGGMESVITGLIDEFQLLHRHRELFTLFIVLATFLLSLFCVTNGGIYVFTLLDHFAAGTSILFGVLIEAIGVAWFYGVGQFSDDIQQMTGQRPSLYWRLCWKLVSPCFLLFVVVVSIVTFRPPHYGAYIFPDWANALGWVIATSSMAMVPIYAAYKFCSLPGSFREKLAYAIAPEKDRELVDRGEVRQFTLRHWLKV
Description: Human dopamine transporters expressed in CHO—K1 cells are used in modified Tris-HCl buffer at pH 7.4. […] Non-specific binding is estimated in the presence of […] nomifensine.

mice [6] = test: Novel object recognition test (acute); type: in vivo; conditions: 30 mg/kg i.p., same experimental conditions
From the text: The novel object recognition task is used to evaluate cognition, particularly memory recognition, in rodent models of CNS disorders. This test is based on the spontaneous tendency of rodents to spend more time exploring a novel object than a familiar one. The choice to explore the novel object reflects the use of learning and memory recognition. The novel object recognition test provides a measure of activity in a novel environment allowing tests for emotional reactivity and also for novel object recognition, a cognitive domain that depends on hippocampal functional integrity. Animals were habituated to the presence of two identical objects (LEGO® pieces) during a single session of 5 minutes (training) and sniffing (exploration of an object was defined as pointing the nose to the object at a distance of <1 cm and/or touching it with the nose). Mice were injected with saline or with the compound to be tested and returned to their home cages. At 24 hours the animals were introduced in the same open field again with the same two items (familiarization), and again exploration in each of them for 5 minutes was registered. One hour later, the mice were retested in the open field for 3 minutes, but this time with one of the “familiar” objects replaced by a new one (test). To analyze cognitive performance, a discrimination index was calculated as the difference in time exploring the novel and familiar object, expressed as the ratio of the total time spent exploring both objects, which made it possible to adjust for any differences in total exploration time. This test is useful for assessing impaired cognitive ability in transgenic strains of mice and evaluating novel chemical entities for their effect on cognition (Zhang, R. J Alzheimers Dis 2012, 31(4): 801-12). […] Neuroplasticity 2007, 26496).

[7] = 30 mg/kg oral, 60 minutes after dosing

T1 sequence (P23975 whole entry): as the sequence (P23975 whole entry) above

| SMILES | inhibition at 10 µM [1] [%] | inhibition at 10 µM (serotonin transporter) [%] | IC50 (uptake of norepinephrine) [µM] | IC50 (uptake of serotonin) [µM] | antidepressant effect (duration of immobility) (mice [2]; 90 mg/kg p.o.) | analgesic activity following formalin challenge (hind paw licking time) (mice [3]; 90 mg/kg oral) | cell viability (MTT) (CHO cells) [%] | phosphorylation of CREB [4] | IC50 [5] [µM] | melting point [°C] | antidepressant effect (duration of immobility) (mice [2]; [7]) | analgesic activity following formalin challenge (hind paw licking time) (mice [3]; 30 mg/kg oral) | cognitive improvement (mice [6]) |
| --- | --- | --- | --- | --- | --- | --- | --- | --- | --- | --- | --- | --- | --- |
| CNCC[C@@H](Oc1ccc(CCO)cc1)c1ccccc1.Cl [Example 3, (R)-2-[4-[3-(Methylamino)-1-phenylpropoxy]phenyl]ethanol hydrochloride] | 65 to 90 | 68 to 82 | 1.6 to 2.9 | 2.5 to 4.8 | active | active | 100 | increase significantly | – | – | – | – | – |
| COC(=O)[C@H]1[C@H]2C[C@@H]3c4[nH]c5cc(OC)ccc5c4CCN3C[C@H]2C[C@@H](OC(=O)c2cc(OC)c(OC)c(OC)c2)[C@@H]1OC [reserpine, reference compound] | – | – | – | – | – | – | – | – | 1.3 | – | – | – | – |
| Cl.NCCC(Oc1ccc(CCO)cc1)c1ccccc1 (stereo not drawn) [Example 12, 2-[4-(3-Amino-1-phenylpropoxy)phenyl]ethanol hydrochloride] | 79 | 78 | 2.7 | 1 | – | – | – | – | – | 68 to 70 | – | – | – |
| Cl.OCCc1ccc(OCC2CNCCO2)cc1 (stereo not drawn) [Example 18, 2-[4-(Morpholin-2-ylmethoxy)phenyl]ethanol hydrochloride] | 65 to 90 | 68 to 82 | 1.6 to 2.9 | 2.5 to 4.8 | – | demonstrated analgesic activity | 100 | – | – | 163 to 169 | – | – | – |
| CNCC[C@H](Oc1ccc(CCO)cc1)c1ccccc1.Cl [Example 4, (S)-2-[4-[3-(Methylamino)-1-phenylpropoxy]phenyl]ethanol hydrochloride] | 65 to 90 | 68 to 82 | 1.6 to 2.9 | 2.5 to 4.8 | active | active | 100 | increase significantly | – | – | significant activity | active | – |
| CNCCCN1c2ccccc2CCc2ccccc21 [Desipramine, reference compound] | – | – | – | – | – | – | – | – | – | – | significant effect | – | – |
| CNCCC(Oc1ccc(C(F)(F)F)cc1)c1ccccc1 (stereo not drawn) [Fluoxetine, reference compound] | – | – | – | – | – | – | – | – | – | – | – | – | absence of cognitive improvement |
